Data taken from publication PMC7926793, “Synthesis and Biological Evaluation of 1-(Diarylmethyl)-1H-1,2,4-triazoles and 1-(Diarylmethyl)-1H-imidazoles as a Novel Class of Anti-Mitotic Agent for Activity in Breast Cancer” (Pharmaceuticals, 2021).

Columns and labels:
[1] = system: MCF-10A non-tumorigenic human mammary epithelial cells; experiment: toxicity evaluation, alamarBlue assay; format: cell-based; settings: 10 μM, 24 h
[2] = system: MCF-7 cells; experiment: Annexin V/PI apoptotic assay; format: cell-based, human; settings: 48 h
Description: (§1) Apoptotic cell death was detected by flow cytometry using Annexin V and propidium iodide (PI). MCF-7 and MDA-MB-231 cells were seeded in 6-well plates at a density of 1 × 10^5 cells/mL (3 mL) and treated with either vehicle (0.1% (v/v) EtOH), Phenstatin (7a), or 21l at different concentrations for the selected time. Then, cells were harvested and prepared for flow cytometric analysis. […] Then, cells were washed once in binding buffer and then re-suspended in PI-containing binding buffer (1:1000). […] Four populations are produced during the assay: Annexin V and PI negative (Q4, healthy cells), Annexin V positive and PI negative (Q3, early apoptosis), Annexin V and PI positive (Q2, late apoptosis), and Annexin V negative and PI positive (Q1, necrosis).

[3] = system: MDA-MB-231 cells; experiment: Annexin V/PI apoptotic assay; format: cell-based, human; settings: 48 h
Description: as §1

[4] = system: purified bovine brain tubulin; experiment: tubulin polymerisation assay; format: biochemical; settings: 10 μM
Description: The assembly of purified bovine tubulin was monitored using a kit, BK006, purchased from Cytoskeleton Inc. (Denver, CO, USA). […] Light is scattered proportionally to the concentration of polymerised microtubules in the assay. Therefore, tubulin assembly was monitored turbidimetrically at 340 nm in a Spectramax 340 PC spectrophotometer (Molecular Devices, Sunnyvale, CA, USA). The absorbance was measured at 30 s intervals for 60 min.

[5] = HPLC stability study in phosphate buffers; format: physicochemical
Description: Stability studies for compounds 21l and 24 were performed by analytical HPLC using a Symmetry® column (C18, […], 4.6 × 150 mm), a Waters 2487 Dual Wavelength Absorbance detector, a Waters 1525 binary HPLC pump, and a Waters 717 plus Autosampler (Waters Corporation, Milford, MA, USA). Samples were detected at λ 254 nm using acetonitrile (70%)/water (30%) as the mobile phase over 15 min and a flow rate of 1 mL/min. Stock solutions of the compounds are prepared using 10 mg of compounds 21l and 24 in 10 mL of mobile phase (1 mg/mL). Phosphate buffers at the desired pH values (4, 7.4, and 9) were prepared following the British Pharmacopoeia monograph 2020. Then, 30 μL of stock solution was diluted with 1 mL of appropriate buffer, shaken, and injected immediately. Samples were withdrawn and analysed at time intervals of t = 0 min, 5 min, 30 min, 60 min, and hourly for 24 h.

[6] = system: PARP; experiment: Western blot in MCF-7 cells; format: cell-based, human; settings: MCF-7, 1 μM, vs vehicle
Description: (§2) MCF-7 cells were seeded at a density of 1 × 10^5 cells/flask (10 mL) in T25 flasks. After 48 h, whole cell lysates were prepared from untreated cells or cells treated with vehicle control (EtOH, 0.1% v/v) or selected compound 21l or 24 (1 μM). MCF-7 cells were harvested in Radioimmunoprecipitation assay buffer (RIPA) buffer supplemented with protease inhibitors (Roche Diagnostics), phosphatase inhibitor cocktail 2 (Sigma-Aldrich), and phosphatase inhibitor cocktail 3 (Sigma-Aldrich). Equal quantities of protein (as determined by a bicinchoninic acid assay (BCA assay) were resolved by SDS-PAGE (12%) followed by transfer to polyvinylidene fluoride PVDF membranes. Membranes were blocked in 5% bovine serum albumin/Tris-buffered saline with 0.1% Tween®20 Detergent (TBST) for 1 h. Membranes were incubated in the relevant primary antibodies at 4 °C overnight, washed with TBST, and incubated in horseradish peroxidase-conjugated secondary antibody for 1 h at rt and washed again. Western blot analysis was performed as described above using antibodies directed against Mcl-1 (1:1000) (Millipore), Bcl-2 [1:500] (Millipore), and PARP followed by incubation with a horseradish peroxidase-conjugated anti-mouse antibody (1:2000) (Promega, Madison, WI, USA). All blots were probed with anti-glyceraldehyde 3-phosphate dehydrogenase (GAPDH) antibody (1:5000) (Millipore) to confirm equal loading. Proteins were detected using enhanced chemiluminescent Western blot detection (Clarity Western ECL substrate) (Bio Rad) on the ChemiDoc MP System (Bio Rad). Experiments were performed on three independent occasions.

[7] = system: Mcl-1; experiment: Western blot in MCF-7 cells; format: cell-based, human; settings: MCF-7, 1 μM
Description: as §2

[8] = system: Bcl-2; experiment: Western blot in MCF-7 cells; format: cell-based, human; settings: MCF-7, 1 μM
Description: as §2

## COc1ccc(C(c2cc(OC)c(OC)c(OC)c2)n2ccnc2)cc1O (stereo not drawn) [21l, 5-((1H-Imidazol-1-yl)(3,4,5-Trimethoxyphenyl)Methyl)-2-Methoxyphenol]
[1]
  cell death: approximately 50%
[2]; Homo sapiens, MCF7, MCF-7, 0.1 μM, Figure 9A, read-out: Viable
  viability at 0.1 µM: 85.4%
[2]; Homo sapiens, MCF7, MCF-7, 0.5 μM, Figure 9A, read-out: Viable
  viability at 0.5 µM: 81.9%
[2]; Homo sapiens, MCF7, MCF-7, 1 μM, Figure 9A
  viability at 1 µM: 79.4%
[2]; MCF-7, 0.1 μM
  Annexin V-stained positive cells (total apoptotic cells): 14.1%
[2]; MCF-7, 0.5 μM
  Annexin V-stained positive cells (total apoptotic cells): 17.5%
[2]; MCF-7, 1 μM
  Annexin V-stained positive cells (total apoptotic cells): 19.3%
[3]; Homo sapiens, MDA-MB-231, 0.1 μM, Figure 9B, read-out: Viable
  viability at 0.1 µM: 95.3%
[3]; Homo sapiens, MDA-MB-231, 0.5 μM, Figure 9B, read-out: Viable
  viability at 0.5 µM: 93.1%
[3]; Homo sapiens, MDA-MB-231, 1 μM, Figure 9B
  viability at 1 µM: 91.5%
[3]; MDA-MB-231, 0.1 μM
  total apoptotic cells: 3.6%
[3]; MDA-MB-231, 0.5 μM
  total apoptotic cells: 5.9%
[3]; MDA-MB-231, 1.0 μM
  total apoptotic cells: 6.9%
[4]
  effect on tubulin polymerisation and assembly: significant inhibition of tubulin polymerisation
  fold reduction of the polymer mass compared to the vehicle: 1.34 fold
[4]; 60 min
  Vmax value of tubulin polymerisation: 2.84 ± 0.10 mOD/min
[5]; pH 4, 24 h
  compound remaining (HPLC): 90%
[6]
  expression of full-length PARP (116 kDa): significant reduction
[7]
  expression level of Mcl-1: no change
[8]
  expression level of Bcl-2: no change

## COc1ccc(C(c2cc(OC)c(OC)c(OC)c2)n2nccn2)cc1O (stereo not drawn) [compound 24]
[5]; pH 4, 24 h
  compound remaining (HPLC): 65%
[5]; pH 7.4, 24 h
  compound remaining (HPLC): 50%
[5]; pH 9, 24 h
  compound remaining (HPLC): 60%
[6]
  expression of full-length PARP (116 kDa): significant reduction
[7]
  expression level of Mcl-1: no change
[8]
  expression level of Bcl-2: no change

## COc1ccc(C(c2cc(OC)c(OC)c(OC)c2)n2cncn2)cc1O (stereo not drawn) [19e, 5-((1H-1,2,4-Triazol-1-yl)(3,4,5-Trimethoxyphenyl)methyl)-2-Methoxyphenol]
[1]
  cell death: approximately 50%
